Results: patent publication US20160318987A1 (MEDIMMUNE LIMITED, priority 2013, published 2016)
pEC50: −log10 of the molar value. Where a SMILES comes first, the peptide text is derived from it. [ ]: non-standard residue; d: D form. αMeF = C[C@](N)(Cc1ccccc1)C(=O)O; Aib = CC(C)(N)C(=O)O

What was measured:
hGLP-1R = target: T1, hGLP-1R (Homo sapiens, UniProt P43220); test: cAMP functional assay, cells expressing human GLP-1 receptor (primary assay); type: cell-based; settings: n = 2
T1 construct: expressed in transfected cells
Method: (§1) The biological activities/receptor potencies of the synthetic GLP-1 peptides described herein are suitably tested for biological activity, e.g., stimulation of one or more cellular receptor responses. Stable cell lines expressing human, mouse, rat, or dog GLP-1 receptor (GLP-1R), glucagon receptor (GCGR) or glucose-dependent insulinotropic peptide (gastric inhibitory polypeptide) receptor (GIPR) are generated in HEK293 cells or CHO cells by standard methods.
(§2) cAMP assays were performed using “assay buffer”: Assay Buffer: 0.1% BSA (Sigma #A3059) in HBSS (Sigma #H8264) with 25 mM HEPES, pH 7.4 and containing 0.5 mM IBMX (Sigma #17018).
(§3) Low protein binding 384-well plates (Greiner #781280) are used to perform eleven 1 in 5 serial dilutions of test samples which are made in assay buffer. All sample dilutions are made in duplicate.
(§4) A frozen cryo-vial of cells expressing the receptor of interest is thawed rapidly in a water-bath, transferred to pre-warmed assay buffer and spun at 240× g for 5 minutes. Cells are re-suspended in assay buffer at a batch-dependent optimized concentration (e.g. hGCGR cells at 2×10^5 cells/ml, hGLP-1R and hGIPR cells at 1×10^5 cells /ml).
(§5) From the dilution plate, a 5 μL replica is stamped onto a black shallow-well u-bottom 384-well plate (Corning #3676). To this, 5 μL cell suspension is added and the plates incubated at room temperature for 30 minutes.
(§6) cAMP levels are measured using a commercially available cAMP dynamic 2 HTRF kit (Cisbio, Cat #62AM4PEJ), following the two step protocol as per manufacturer's recommendations. In brief; anti-cAMP cryptate (donor fluorophore) and cAMP-d2 (acceptor fluorophore) are made up separately by diluting each 1/20 in conjugate & lysis buffer provided in the kit. 5 μL anti-cAMP cryptate is added to all wells of the assay plate, and 5 μL cAMP-d2 is added to all wells except non-specific binding (NSB) wells, to which conjugate and lysis buffer are added. Plates are incubated at room temperature for one hour and then read on an Envision (Perkin Elmer) using excitation wavelength of 320 nm and emission wavelengths of 620 nm & 665 nm. EC50 values of the synthetic peptides determined in cAMP assays are then determined.

hGIP-R = target: T2, hGIP-R (Homo sapiens, UniProt P48546); test: cAMP functional assay, cells expressing human GIP receptor (primary assay); type: cell-based; settings: n = 2
T2 construct: expressed in transfected cells
T2 sequence (P48546 22-466): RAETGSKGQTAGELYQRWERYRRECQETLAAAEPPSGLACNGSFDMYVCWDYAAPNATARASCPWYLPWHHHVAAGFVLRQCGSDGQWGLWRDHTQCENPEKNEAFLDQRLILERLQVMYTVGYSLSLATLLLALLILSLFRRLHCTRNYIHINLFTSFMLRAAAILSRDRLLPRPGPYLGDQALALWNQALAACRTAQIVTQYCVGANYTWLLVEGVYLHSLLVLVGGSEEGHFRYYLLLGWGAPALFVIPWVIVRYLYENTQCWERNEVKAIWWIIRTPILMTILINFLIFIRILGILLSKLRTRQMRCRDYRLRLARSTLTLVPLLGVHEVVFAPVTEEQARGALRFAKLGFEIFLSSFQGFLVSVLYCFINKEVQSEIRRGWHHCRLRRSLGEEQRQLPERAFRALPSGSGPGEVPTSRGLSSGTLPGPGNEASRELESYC
Method: as §1, §2, §3, §4, §5, §6

T1 sequence (P43220 24-463): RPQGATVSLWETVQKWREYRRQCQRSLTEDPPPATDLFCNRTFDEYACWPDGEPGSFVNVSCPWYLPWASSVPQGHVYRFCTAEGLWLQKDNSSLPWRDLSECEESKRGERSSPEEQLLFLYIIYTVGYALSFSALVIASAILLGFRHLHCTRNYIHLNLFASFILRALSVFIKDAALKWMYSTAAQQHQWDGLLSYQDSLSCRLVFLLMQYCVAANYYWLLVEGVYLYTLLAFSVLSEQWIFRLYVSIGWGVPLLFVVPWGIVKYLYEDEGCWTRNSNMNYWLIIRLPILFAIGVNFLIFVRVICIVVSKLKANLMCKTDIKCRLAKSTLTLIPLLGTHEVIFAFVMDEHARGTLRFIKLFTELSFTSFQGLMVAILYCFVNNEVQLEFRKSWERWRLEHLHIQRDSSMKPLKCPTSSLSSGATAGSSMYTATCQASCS

Compound | pEC50 (hGLP-1R) | pEC50 (hGIP-R)
CC[C@H](C)[C@H](NC(=O)[C@H](Cc1ccccc1)NC(=O)[C@H](CCC(=O)O)NC(=O)[C@H](CCCCN)NC(=O)[C@H](C)NC(=O)[C@H](C)NC(=O)[C@H](CCC(N)=O)NC(=O)CNC(=O)[C@H](CCC(=O)O)NC(=O)[C@H](CC(C)C)NC(=O)[C@](C)(Cc1ccccc1)NC(=O)[C@H](CO)NC(=O)[C@H](CO)NC(=O)[C@@H](NC(=O)[C@H](CC(=O)O)NC(=O)[C@H](CO)NC(=O)[C@@H](NC(=O)[C@](C)(Cc1ccccc1)NC(=O)[C@@H](NC(=O)CNC(=O)[C@H](CCC(=O)O)NC(=O)C(C)(C)NC(=O)[C@@H](N)Cc1c[nH]cn1)[C@@H](C)O)[C@@H](C)O)C(C)C)C(=O)N[C@@H](C)C(=O)N[C@@](C)(Cc1ccccc1)C(=O)N[C@@H](CC(C)C)C(=O)N[C@H](C(=O)N[C@@H](CCCCN)C(=O)NCC(=O)N[C@@H](CCCNC(=N)N)C(N)=O)C(C)C [SEQ ID NO: 30, H-(Aib)^2-EGT^5-(α-MeF)^6-TSDV^10 SS-(α-MeF)^13-LE^15 GQAAK^20 EF^22-IA-(α-MeF)^25 LVKGR^30] (H-H[Aib]EGT[αMeF]TSDVSS[αMeF]LEGQAAKEFIA[αMeF]LVKGR-NH2) | 10.93 | 7.00
CC[C@H](C)[C@H](NC(=O)[C@](C)(Cc1ccccc1)NC(=O)[C@H](CCC(=O)O)NC(=O)[C@H](CCCCN)NC(=O)[C@H](C)NC(=O)[C@H](C)NC(=O)[C@H](CCC(N)=O)NC(=O)CNC(=O)[C@H](CCC(=O)O)NC(=O)[C@H](CC(C)C)NC(=O)[C@H](Cc1ccc(O)cc1)NC(=O)[C@H](CO)NC(=O)[C@H](CO)NC(=O)[C@@H](NC(=O)[C@H](CC(=O)O)NC(=O)[C@H](CO)NC(=O)[C@@H](NC(=O)[C@](C)(Cc1ccccc1)NC(=O)[C@@H](NC(=O)CNC(=O)[C@H](CCC(=O)O)NC(=O)C(C)(C)NC(=O)[C@@H](N)Cc1c[nH]cn1)[C@@H](C)O)[C@@H](C)O)C(C)C)C(=O)N[C@@H](C)C(=O)N[C@@](C)(Cc1ccccc1)C(=O)N[C@@H](CC(C)C)C(=O)N[C@H](C(=O)N[C@@H](CCCCN)C(=O)NCC(=O)N[C@@H](CCCNC(=N)N)C(N)=O)C(C)C [SEQ ID NO: 31, H-(Aib)^2-EGT^5-(α-MeF)^6-TSDV^10 SSYLE^15 GQAAK^20 E-(α-MeF)^22-IA-(α-MeF)^25 LVKGR^30] | 10.81 | 6.99
CC[C@H](C)[C@H](NC(=O)[C@](C)(Cc1ccccc1)NC(=O)[C@H](CCC(=O)O)NC(=O)[C@H](CCCCN)NC(=O)[C@H](C)NC(=O)[C@H](C)NC(=O)[C@H](CCC(N)=O)NC(=O)CNC(=O)[C@H](CCC(=O)O)NC(=O)[C@H](CC(C)C)NC(=O)[C@](C)(Cc1ccccc1)NC(=O)[C@H](CO)NC(=O)[C@H](CO)NC(=O)[C@@H](NC(=O)[C@H](CC(=O)O)NC(=O)[C@H](CO)NC(=O)[C@@H](NC(=O)[C@H](Cc1ccccc1)NC(=O)[C@@H](NC(=O)CNC(=O)[C@H](CCC(=O)O)NC(=O)C(C)(C)NC(=O)[C@@H](N)Cc1c[nH]cn1)[C@@H](C)O)[C@@H](C)O)C(C)C)C(=O)N[C@@H](C)C(=O)N[C@@](C)(Cc1ccccc1)C(=O)N[C@@H](CC(C)C)C(=O)N[C@H](C(=O)N[C@@H](CCCCN)C(=O)NCC(=O)N[C@@H](CCCNC(=N)N)C(N)=O)C(C)C [SEQ ID NO: 32, H-(Aib)^2-EGT^5-FTSDV^10 SS-(α-MeF)^13-LE^15 GQAAK^20 E-(α-MeF)^22-IA-(α-MeF)^25 LVKGR^30] (H-H[Aib]EGTFTSDVSS[αMeF]LEGQAAKE[αMeF]IA[αMeF]LVKGR-NH2) | 9.99 | 6.99
CC[C@H](C)[C@H](NC(=O)[C@H](Cc1ccccc1)NC(=O)[C@H](CCC(=O)O)NC(=O)[C@H](CCCCN)NC(=O)[C@H](C)NC(=O)[C@H](C)NC(=O)[C@H](CCC(N)=O)NC(=O)CNC(=O)[C@H](CCC(=O)O)NC(=O)[C@H](CC(C)C)NC(=O)[C@H](Cc1ccccc1)NC(=O)[C@H](CO)NC(=O)[C@H](CO)NC(=O)[C@@H](NC(=O)[C@H](CC(=O)O)NC(=O)[C@H](CO)NC(=O)[C@@H](NC(=O)[C@H](Cc1ccccc1)NC(=O)[C@H](CO)NC(=O)CNC(=O)[C@H](CCC(=O)O)NC(=O)C(C)(C)NC(=O)[C@@H](N)Cc1c[nH]cn1)[C@@H](C)O)C(C)C)C(=O)N[C@@H](C)C(=O)N[C@@H](Cc1ccccc1)C(=O)N[C@@H](CC(C)C)C(=O)N[C@H](C(=O)N[C@@H](CCCCN)C(=O)NCC(=O)N[C@@H](CCCNC(=N)N)C(N)=O)C(C)C [SEQ ID NO: 33, H-(Aib)^2-EG-(S)^5-FTSDV^10 SS-(F)^13-LE^15 GQAAK^20 EFIA-(F)^25 LVKGR^30] (H-H[Aib]EGSFTSDVSSFLEGQAAKEFIAFLVKGR-NH2) | 10.74 | 6.99

Continued, values first:

pEC50 (hGLP-1R) | pEC50 (hGIP-R) | Compound
10.65 | 6.99 | CC[C@H](C)[C@H](NC(=O)[C@](C)(Cc1ccccc1)NC(=O)[C@H](CCC(=O)O)NC(=O)[C@H](CCCCN)NC(=O)[C@H](C)NC(=O)[C@H](C)NC(=O)[C@H](CCC(N)=O)NC(=O)CNC(=O)[C@H](CCC(=O)O)NC(=O)[C@H](CC(C)C)NC(=O)[C@](C)(Cc1ccccc1)NC(=O)[C@H](CO)NC(=O)[C@H](CO)NC(=O)[C@@H](NC(=O)[C@H](CC(=O)O)NC(=O)[C@H](CO)NC(=O)[C@@H](NC(=O)[C@](C)(Cc1ccccc1)NC(=O)[C@H](CO)NC(=O)CNC(=O)[C@H](CCC(=O)O)NC(=O)C(C)(C)NC(=O)[C@@H](N)Cc1c[nH]cn1)[C@@H](C)O)C(C)C)C(=O)N[C@@H](C)C(=O)N[C@@H](Cc1c[nH]c2ccccc12)C(=O)N[C@@H](CC(C)C)C(=O)N[C@H](C(=O)N[C@@H](CCCCN)C(=O)NCC(=O)N[C@@H](CCCNC(=N)N)C(N)=O)C(C)C [SEQ ID NO: 34, H-(Aib)^2-EG-(S)^5-(α-MeF)^6-TSDV^10 SS-(α-MeF)^13-LE^15 GQAAK^20 E-(α-MeF)^22-IAW^25 LVKGR^30] (H-H[Aib]EGS[αMeF]TSDVSS[αMeF]LEGQAAKE[αMeF]IAWLVKGR-NH2)
10.70 | 6.99 | CC[C@H](C)[C@H](NC(=O)[C@H](Cc1ccccc1)NC(=O)[C@H](CCC(=O)O)NC(=O)[C@H](CCCCN)NC(=O)[C@H](C)NC(=O)[C@H](C)NC(=O)[C@H](CCC(N)=O)NC(=O)CNC(=O)[C@H](CCC(=O)O)NC(=O)[C@H](CC(C)C)NC(=O)[C@](C)(Cc1ccccc1)NC(=O)[C@H](CO)NC(=O)[C@H](CO)NC(=O)[C@@H](NC(=O)[C@H](CC(=O)O)NC(=O)[C@H](CO)NC(=O)[C@@H](NC(=O)[C@](C)(Cc1ccccc1)NC(=O)[C@H](CO)NC(=O)CNC(=O)[C@H](CCC(=O)O)NC(=O)C(C)(C)NC(=O)[C@@H](N)Cc1c[nH]cn1)[C@@H](C)O)C(C)C)C(=O)N[C@@H](C)C(=O)N[C@@](C)(Cc1ccccc1)C(=O)N[C@@H](CC(C)C)C(=O)N[C@H](C(=O)N[C@@H](CCCCN)C(=O)NCC(=O)N[C@@H](CCCNC(=N)N)C(N)=O)C(C)C [SEQ ID NO: 35, H-(Aib)^2-EG-(S)^5-(α-MeF)^6-TSDV^10 SS-(α-MeF)^13-LE^15 GQAAK^20 EFIA-(α-MeF)^25 LVKGR^30] (H-H[Aib]EGS[αMeF]TSDVSS[αMeF]LEGQAAKEFIA[αMeF]LVKGR-NH2)
10.57 | 6.99 | CC[C@H](C)[C@H](NC(=O)[C@](C)(Cc1ccccc1)NC(=O)[C@H](CCC(=O)O)NC(=O)[C@H](CCCCN)NC(=O)[C@H](C)NC(=O)[C@H](C)NC(=O)[C@H](CCC(N)=O)NC(=O)CNC(=O)[C@H](CCC(=O)O)NC(=O)[C@H](CC(C)C)NC(=O)[C@H](Cc1ccc(O)cc1)NC(=O)[C@H](CO)NC(=O)[C@H](CO)NC(=O)[C@@H](NC(=O)[C@H](CC(=O)O)NC(=O)[C@H](CO)NC(=O)[C@@H](NC(=O)[C@](C)(Cc1ccccc1)NC(=O)[C@H](CO)NC(=O)CNC(=O)[C@H](CCC(=O)O)NC(=O)C(C)(C)NC(=O)[C@@H](N)Cc1c[nH]cn1)[C@@H](C)O)C(C)C)C(=O)N[C@@H](C)C(=O)N[C@@](C)(Cc1ccccc1)C(=O)N[C@@H](CC(C)C)C(=O)N[C@H](C(=O)N[C@@H](CCCCN)C(=O)NCC(=O)N[C@@H](CCCNC(=N)N)C(N)=O)C(C)C [SEQ ID NO: 36, H-(Aib)^2-EG-(S)^5-(α-MeF)^6-TSDV^10 SSYLE^15 GQAAK^20 E-(α-MeF)^22-IA-(α-MeF)^25 LVKGR^30] (H-H[Aib]EGS[αMeF]TSDVSSYLEGQAAKE[αMeF]IA[αMeF]LVKGR-NH2)
